Test system: electrical activity of the prefrontal cortex
Assay: Quantitative EEG spectral analysis (FFT relative powers) in conscious rats
Format: in vivo, Wistar rats
Conditions: for actual EEG effect: MFA 0.4 mg/kg ip; for increase in the relative powers in the prefrontal cortex: paroxetine 0.5 mg/kg ip alone
Description: A group of 6 conscious Wistar rats was pre-implanted with 6 bipolar bilateral electrodes (2 frontal, 2 anterior hippocampic, 2 posterior hippocampic).
Different treatments were conducted by circular combination of 6 rats by treatment (psychotropic treatment alone, anti-connexin treatment alone, anti-connexin+psychotropic combination treatment). The injection of meclofenamic acid (Sigma) is performed by slow submeningeal injection (80 ng/kg, 4.5 pg/second) or intraperitoneally at different doses. The injection of glycyrrhetinic acid (Sigma) is performed by submeningeal injection (80 ng/kg). The injection of clozapine (Sigma) is performed intraperitoneally (0.2 mg/kg). The injection of paroxetine (Sigma) is performed intraperitoneally (0.5 mg/kg). The injection of modafinil (Cephalon) is performed intraperitoneally (125 mg/kg and 250 mg/kg).
The EEG measurements were performed on the different groups of conscious rats (previously implanted and habituated) by 2-hour recordings after injection. The spectral analysis performed by Fourier transform (FFT) makes it possible to obtain relative powers, Hertz-by-Hertz and second-by-second. The FFT data is then averaged minute-by-minute and associated with the solvent control produced the day prior to the recording under strictly identical experimental conditions. The relative spectral powers of the left and right prefrontal cortices are then averaged by 5-minute periods, averaged by groups of 12 5-minute repetitions and represented hour-by-hour.
The data obtained from the relative quantitative EEG analysis of the effects of the different drugs administered individually (psychotropic alone or anti-connexin agents alone), presented in the examples, were subjected to a statistical analysis by analysis of variance (ANOVA) with three factors: “Frequency” (by Hz), “Time” (first and second hour by 12 averaged 5-minute repetitions) and “Animal” (6 different animals for each treatment). For the combinations of psychotropic and anti-connexin agents presented in the examples, a fourth ANOVA factor was introduced: “Anti-connexin combination”. The significance threshold of the relative power modifications for a given frequency for a psychotropic drug alone with respect to the control (solvent of the psychotropic agent) or a psychotropic drug in combination with an anti-connexin with respect to the psychotropic agent administered alone (in favor of a relative power increase or a decrease) was chosen at a value of P<0.05.

[1] = diazepam 1 mg/kg ip alone, first hour

Cc1ccc(Cl)c(Nc2ccccc2C(=O)O)c1Cl [MFA, Benzoic 2-[(2,6-di-chloro-3-phenyl)amino] acid]
increase in the EEG potential / synchronization of the prefrontal cerebral activity (MFA 80 ng/kg submeningeal, 8-10 Hz, first hour extending to second hour): 140%
actual EEG effect (first hour): no significant modification
actual EEG effect (second hour): slight significant increase
synchronization of the prefrontal cerebral activity at the second hour (MFA central administration (80 ng/kg submeningeal), second hour): decreases
synchronization of the prefrontal cerebral activity at the second hour (MFA peripheral administration (2.45 mg/kg ip), second hour): significant increase in synchronization continues at the second hour

CC(NC(C)(C)C)C(=O)c1cccc(Cl)c1 (stereo not drawn) [bupropion]
increase in power of the 8-10 Hz components (bupropion 0.16 mg/kg ip alone, first hour): around 180%
increase in power of the 8-10 Hz components (bupropion 0.8 mg/kg ip alone, first hour): ~450%
increase in power of the 8-10 Hz components (bupropion 4 mg/kg ip alone, first hour): ~280%

CN1CCN(C2=Nc3cc(Cl)ccc3Nc3ccccc32)CC1 [clozapine]
increase in the EEG potential / synchronization of the prefrontal cerebral activity (clozapine 0.2 mg/kg ip alone, 8-10 Hz, from first hour extending to second hour): 200%

CN1C(=O)CN=C(c2ccccc2)c2cc(Cl)ccc21 [diazepam]
decrease in power of the 4-7 Hz components [1]: around 25%
increase in the power of the 11-30 Hz components [1]: around 120%

CN(C)CCC[C@@]1(c2ccc(F)cc2)OCc2cc(C#N)ccc21 [escitalopram]
increase in power of the 6-8 Hz components (escitalopram 0.8 mg/kg ip alone, first hour): around 150%
increase in power of the 6-8 Hz components (escitalopram 4 mg/kg ip alone, first hour): ~200%

NC(=O)C[S+]([O-])C(c1ccccc1)c1ccccc1 (stereo not drawn) [modafinil]
increase in the EEG potential / synchronization of the prefrontal cerebral activity (modafinil 125 mg/kg ip alone, 2-5 Hz): 120%
increase in the EEG potential / synchronization of the prefrontal cerebral activity (modafinil 250 mg/kg ip alone, 2-5 Hz): 300%

Fc1ccc([C@@H]2CCNC[C@H]2COc2ccc3c(c2)OCO3)cc1 [paroxetine]
increase in the relative powers in the prefrontal cortex (8-10 Hz, first hour): around 200%
increase in the relative powers in the prefrontal cortex (8-10 Hz, second hour): around 300%

CN[C@H]1CC[C@@H](c2ccc(Cl)c(Cl)c2)c2ccccc21 [sertraline]
increase in power of the 7-9 Hz components (sertraline 0.16 mg/kg ip alone, first hour): around 260%
increase in power of the 7-9 Hz components (sertraline 0.8 mg/kg ip alone, first hour): around 260%
increase in power of the same components at the second hour (sertraline 0.8 mg/kg ip alone, second hour): 900%
increase in power of the 7-9 Hz components (sertraline 4 mg/kg ip alone, first hour): ~200%
increase in power of the same components at the second hour (sertraline 4 mg/kg ip alone, second hour): 450%

COc1ccc(C(CN(C)C)C2(O)CCCCC2)cc1 (stereo not drawn) [venlafaxine]
increase in power of the 8-10 Hz components (venlafaxine 0.16 mg/kg ip alone, first hour): around 120%
increase in power of the 8-10 Hz components (venlafaxine 4 mg/kg ip alone, first hour): ~200%

Reference: patent US11077080B2, “Use of anti-connexin agents for modulating the therapeutic effect of psychotropic drugs” (Commissariat A L'Energie Atomique Et Aux Energies …, priority 2008, dated 2021)
